This note sets out measurements from ChEMBL document CHEMBL1148386, “(2S,1'S,2'R,3'R)-2-(2'-Carboxy-3'-hydroxymethylcyclopropyl) glycine is a highly potent group 2 and 3 metabotropic glutamate receptor agonist with oral activity” (J Med Chem, 2004).

The structures appear in SMILES notation.

Experiment [1] concerns the target T1, Metabotropic glutamate receptor 7 (Rattus norvegicus, UniProt P35400). The experiment can be described thus: Metabotropic glutamate receptor 7 agonist activity to influence forskolin stimulated c-AMP formation in rat non neuronal cells. Format: functional, cell-based.
Experiment [2] concerns the target T2, Metabotropic glutamate receptor 6 (Rattus norvegicus, UniProt P35349). The experiment can be described thus: Metabotropic glutamate receptor 6 agonist activity to influence forskolin stimulated c-AMP formation in rat non neuronal cells. In kind it is functional, cell-based.
The target in experiment [3] is Metabotropic glutamate receptor 1 (Rattus norvegicus, UniProt P23385). The experiment can be described thus: Metabotropic glutamate receptor 1 agonist activity as basal [3H]- IP formation in rat. In kind it is functional.
Experiment [4] concerns the target Metabotropic glutamate receptor 5 (Rattus norvegicus, UniProt P31424). Put plainly: Metabotropic glutamate receptor 5 agonist activity as basal [3H]- IP formation in rat. Format: functional.
The target in experiment [5] is T3, Metabotropic glutamate receptor 4 (Rattus norvegicus, UniProt P31423). The experiment can be described thus: Metabotropic glutamate receptor 4 agonist activity to influence forskolin stimulated c-AMP formation in rat non neuronal cells. In kind it is functional, cell-based.
Experiment [6] has as its target Metabotropic glutamate receptor 3 (Rattus norvegicus, UniProt P31422). Put plainly: Metabotropic glutamate receptor 3 agonist activity against forskolin stimulated c-AMP formation in rat non neuronal cells. Format: functional, cell-based.
Experiment [7] has as its target Metabotropic glutamate receptor 2 (Rattus norvegicus, UniProt P31421). The experiment can be described thus: Metabotropic glutamate receptor 2 agonist activity against forskolin stimulated c-AMP formation in rat non neuronal cells. In kind it is functional, cell-based.
In experiment [8] the target is T4, Metabotropic glutamate receptor 8 (Rattus norvegicus, UniProt P70579). The experiment can be described thus: Metabotropic glutamate receptor 8 agonist activity against forskolin stimulated c-AMP formation in rat non neuronal cells. In kind it is functional, cell-based.
For experiment [9], the target named is T2, Metabotropic glutamate receptor 6. The experiment can be described thus: Metabotropic glutamate receptor 6 antagonist activity to influence forskolin stimulated c-AMP formation in rat non neuronal cells. Format: functional, cell-based.
Experiment [10] addresses T1, Metabotropic glutamate receptor 7. The experiment can be described thus: Metabotropic glutamate receptor 7 antagonist activity to influence forskolin stimulated c-AMP formation in rat non neuronal cells. In kind it is functional, cell-based.
Experiment [11] deals with T4, Metabotropic glutamate receptor 8. Put plainly: Metabotropic glutamate receptor 8 antagonist activity to influence forskolin stimulated c-AMP formation in rat non neuronal cells. Format: functional, cell-based.
Experiment [12] addresses T3, Metabotropic glutamate receptor 4. Put plainly: Metabotropic glutamate receptor 4 antagonist activity to influence forskolin stimulated c-AMP formation in rat non neuronal cells. Format: functional, cell-based.

Metabotropic glutamate receptor 5, sequence (P31424 whole entry): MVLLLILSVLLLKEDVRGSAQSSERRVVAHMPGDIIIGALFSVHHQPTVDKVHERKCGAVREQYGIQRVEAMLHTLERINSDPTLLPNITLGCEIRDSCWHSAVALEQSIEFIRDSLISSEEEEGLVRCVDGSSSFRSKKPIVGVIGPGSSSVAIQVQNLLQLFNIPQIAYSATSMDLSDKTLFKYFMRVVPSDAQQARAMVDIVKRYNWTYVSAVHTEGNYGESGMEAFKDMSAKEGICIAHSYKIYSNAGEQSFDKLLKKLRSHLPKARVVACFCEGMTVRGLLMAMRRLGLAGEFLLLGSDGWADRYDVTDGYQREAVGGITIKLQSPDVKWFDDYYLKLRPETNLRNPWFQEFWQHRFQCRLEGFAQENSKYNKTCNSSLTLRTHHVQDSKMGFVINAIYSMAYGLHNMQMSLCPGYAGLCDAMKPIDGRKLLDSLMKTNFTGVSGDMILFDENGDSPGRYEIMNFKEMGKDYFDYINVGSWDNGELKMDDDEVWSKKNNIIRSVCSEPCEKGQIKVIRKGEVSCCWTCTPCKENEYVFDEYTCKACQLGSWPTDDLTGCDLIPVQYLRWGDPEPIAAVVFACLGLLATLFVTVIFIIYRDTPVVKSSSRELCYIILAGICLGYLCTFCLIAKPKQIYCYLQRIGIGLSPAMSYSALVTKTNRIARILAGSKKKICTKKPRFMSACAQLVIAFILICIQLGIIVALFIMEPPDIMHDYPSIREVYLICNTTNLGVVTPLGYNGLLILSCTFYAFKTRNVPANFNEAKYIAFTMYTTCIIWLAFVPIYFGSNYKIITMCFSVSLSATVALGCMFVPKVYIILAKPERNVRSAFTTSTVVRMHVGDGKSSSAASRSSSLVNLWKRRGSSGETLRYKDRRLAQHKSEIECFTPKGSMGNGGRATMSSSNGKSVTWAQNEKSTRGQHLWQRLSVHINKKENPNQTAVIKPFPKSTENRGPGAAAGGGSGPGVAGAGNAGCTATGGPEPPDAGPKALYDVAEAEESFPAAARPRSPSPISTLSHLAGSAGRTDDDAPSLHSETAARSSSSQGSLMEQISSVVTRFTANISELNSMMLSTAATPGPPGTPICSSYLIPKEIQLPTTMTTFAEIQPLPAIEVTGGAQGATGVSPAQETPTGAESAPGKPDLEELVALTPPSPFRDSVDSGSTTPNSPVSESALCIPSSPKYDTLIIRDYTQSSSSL
T1 sequence (P35400 whole entry): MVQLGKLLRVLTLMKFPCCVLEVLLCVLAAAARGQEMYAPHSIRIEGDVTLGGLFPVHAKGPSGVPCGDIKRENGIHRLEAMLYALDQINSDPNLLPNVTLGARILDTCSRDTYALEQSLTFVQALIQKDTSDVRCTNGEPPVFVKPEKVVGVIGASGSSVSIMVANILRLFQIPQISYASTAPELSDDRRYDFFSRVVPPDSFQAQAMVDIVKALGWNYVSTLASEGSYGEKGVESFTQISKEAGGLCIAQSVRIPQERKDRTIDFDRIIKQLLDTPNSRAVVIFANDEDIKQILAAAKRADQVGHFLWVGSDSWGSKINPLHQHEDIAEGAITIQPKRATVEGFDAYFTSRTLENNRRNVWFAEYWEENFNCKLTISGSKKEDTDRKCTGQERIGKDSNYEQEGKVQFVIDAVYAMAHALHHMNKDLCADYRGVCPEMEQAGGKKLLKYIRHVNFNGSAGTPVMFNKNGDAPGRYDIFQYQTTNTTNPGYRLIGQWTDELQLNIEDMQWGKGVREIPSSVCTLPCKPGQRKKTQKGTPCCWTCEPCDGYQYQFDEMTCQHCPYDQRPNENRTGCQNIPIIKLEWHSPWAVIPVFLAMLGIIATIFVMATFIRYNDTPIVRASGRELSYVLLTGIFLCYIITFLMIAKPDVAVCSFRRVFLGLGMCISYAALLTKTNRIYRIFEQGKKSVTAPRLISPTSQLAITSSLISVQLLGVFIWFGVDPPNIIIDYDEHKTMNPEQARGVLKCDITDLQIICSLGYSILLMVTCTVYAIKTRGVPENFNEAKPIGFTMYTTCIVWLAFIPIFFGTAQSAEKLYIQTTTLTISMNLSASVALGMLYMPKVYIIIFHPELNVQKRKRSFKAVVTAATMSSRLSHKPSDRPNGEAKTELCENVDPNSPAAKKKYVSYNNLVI
T4 sequence (P70579 whole entry): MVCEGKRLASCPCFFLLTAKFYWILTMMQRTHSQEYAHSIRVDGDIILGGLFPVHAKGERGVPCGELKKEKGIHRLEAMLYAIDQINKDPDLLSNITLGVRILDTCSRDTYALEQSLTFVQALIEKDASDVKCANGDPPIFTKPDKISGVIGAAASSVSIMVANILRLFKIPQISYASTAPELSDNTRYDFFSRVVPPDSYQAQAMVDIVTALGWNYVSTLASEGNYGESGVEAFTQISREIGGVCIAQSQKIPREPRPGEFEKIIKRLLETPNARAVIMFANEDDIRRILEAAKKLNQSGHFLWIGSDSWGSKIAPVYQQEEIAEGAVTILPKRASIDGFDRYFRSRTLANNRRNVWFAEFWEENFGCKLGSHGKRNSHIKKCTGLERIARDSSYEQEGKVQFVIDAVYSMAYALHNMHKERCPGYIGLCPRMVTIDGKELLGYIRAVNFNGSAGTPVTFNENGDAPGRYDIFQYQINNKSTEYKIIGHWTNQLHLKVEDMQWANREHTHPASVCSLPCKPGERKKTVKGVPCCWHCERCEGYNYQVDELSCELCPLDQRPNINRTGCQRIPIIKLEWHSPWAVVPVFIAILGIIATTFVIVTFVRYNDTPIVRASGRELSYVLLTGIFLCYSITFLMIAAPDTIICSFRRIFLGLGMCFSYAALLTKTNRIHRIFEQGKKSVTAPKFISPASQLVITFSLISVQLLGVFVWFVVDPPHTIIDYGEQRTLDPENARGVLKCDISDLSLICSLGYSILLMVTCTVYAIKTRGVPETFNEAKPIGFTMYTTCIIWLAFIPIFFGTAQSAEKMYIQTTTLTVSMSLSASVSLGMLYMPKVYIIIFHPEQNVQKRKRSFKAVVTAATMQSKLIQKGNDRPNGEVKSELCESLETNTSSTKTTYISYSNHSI
Metabotropic glutamate receptor 3, sequence (P31422 whole entry): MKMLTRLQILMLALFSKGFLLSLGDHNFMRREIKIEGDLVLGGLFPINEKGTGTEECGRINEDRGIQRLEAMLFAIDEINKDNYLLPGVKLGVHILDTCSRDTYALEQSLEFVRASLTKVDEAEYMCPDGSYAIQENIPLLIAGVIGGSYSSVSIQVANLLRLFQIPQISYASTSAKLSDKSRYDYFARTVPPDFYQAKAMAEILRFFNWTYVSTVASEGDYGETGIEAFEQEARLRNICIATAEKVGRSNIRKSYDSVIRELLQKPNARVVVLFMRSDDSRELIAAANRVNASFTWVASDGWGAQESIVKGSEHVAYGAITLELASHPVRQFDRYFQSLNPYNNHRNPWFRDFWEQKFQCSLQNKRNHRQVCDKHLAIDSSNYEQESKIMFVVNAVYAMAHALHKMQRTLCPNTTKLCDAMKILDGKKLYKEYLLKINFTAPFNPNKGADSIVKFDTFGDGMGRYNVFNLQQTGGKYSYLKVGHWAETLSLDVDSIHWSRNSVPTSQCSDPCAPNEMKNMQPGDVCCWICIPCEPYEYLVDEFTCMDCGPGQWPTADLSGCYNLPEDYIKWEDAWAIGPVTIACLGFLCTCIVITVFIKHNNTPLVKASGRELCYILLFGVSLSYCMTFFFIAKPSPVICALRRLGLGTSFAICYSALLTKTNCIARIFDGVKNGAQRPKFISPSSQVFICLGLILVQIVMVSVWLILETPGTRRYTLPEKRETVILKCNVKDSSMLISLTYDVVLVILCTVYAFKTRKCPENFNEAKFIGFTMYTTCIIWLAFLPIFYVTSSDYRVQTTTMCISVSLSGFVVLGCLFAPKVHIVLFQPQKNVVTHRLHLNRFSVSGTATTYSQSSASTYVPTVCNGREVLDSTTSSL
Metabotropic glutamate receptor 2, sequence (P31421 whole entry): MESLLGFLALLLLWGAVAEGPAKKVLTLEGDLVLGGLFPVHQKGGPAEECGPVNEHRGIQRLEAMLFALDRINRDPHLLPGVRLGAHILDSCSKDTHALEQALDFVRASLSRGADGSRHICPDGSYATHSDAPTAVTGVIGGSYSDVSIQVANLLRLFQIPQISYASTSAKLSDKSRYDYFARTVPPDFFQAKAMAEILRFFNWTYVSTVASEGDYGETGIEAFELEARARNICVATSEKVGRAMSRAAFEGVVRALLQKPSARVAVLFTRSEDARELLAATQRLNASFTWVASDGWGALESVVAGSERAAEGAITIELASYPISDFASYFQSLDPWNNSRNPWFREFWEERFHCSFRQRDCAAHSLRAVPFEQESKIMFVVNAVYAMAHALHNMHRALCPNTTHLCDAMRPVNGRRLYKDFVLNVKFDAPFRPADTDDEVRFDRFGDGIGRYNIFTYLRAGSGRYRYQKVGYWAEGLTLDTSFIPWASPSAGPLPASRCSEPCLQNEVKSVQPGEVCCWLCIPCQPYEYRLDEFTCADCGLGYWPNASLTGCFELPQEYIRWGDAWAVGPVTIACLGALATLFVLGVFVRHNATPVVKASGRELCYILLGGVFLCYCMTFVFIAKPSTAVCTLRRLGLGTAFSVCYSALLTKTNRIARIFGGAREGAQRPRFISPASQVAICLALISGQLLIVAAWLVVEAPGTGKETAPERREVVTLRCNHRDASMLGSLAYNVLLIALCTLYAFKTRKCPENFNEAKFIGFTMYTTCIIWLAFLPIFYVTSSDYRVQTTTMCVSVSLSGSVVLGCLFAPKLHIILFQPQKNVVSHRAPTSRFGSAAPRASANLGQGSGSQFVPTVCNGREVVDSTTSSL

On to `N[C@H](C(=O)O)c1ccc(C(=O)O)c(C(=O)O)c1`, for which the EC50 in experiment [1] was over 100 µM; in experiment [2], 3.6 µM; in experiment [3], 32 µM; in experiment [4] it was over 100 µM; in experiment [5], 8.8 µM; in [6], over 100 µM. For the same molecule, the values for the EC50 in experiment [7] and in experiment [8] were over 100 µM and 0.031 µM, respectively.
As to `N[C@H](C(=O)O)[C@H]1[C@H](CC(=O)O)[C@@H]1C(=O)O`, the EC50 in [3] was over 100 µM; in experiment [4] it was over 100 µM; in experiment [7], 0.3 µM.
In the case of `N[C@H](C(=O)O)[C@H]1C[C@@H]1C(=O)O`, the EC50 in experiment [1] is 47 µM; in experiment [2], 0.6 µM; in [3], 23 µM; in experiment [4], 17 µM; in [5] it was 4 µM; in experiment [6], 0.6 µM. For the same molecule, the EC50 was found to be 0.3 µM in experiment [7] and 0.4 µM in experiment [8].
As for `N[C@H](C(=O)O)C1[C@@H](C(=O)O)[C@@H]1C(=O)O` (some centres undefined), the 50% effective concentration (EC50) in [9] is 40 µM; in experiment [3], over 100 µM; in [4], 389 µM; in experiment [10], 40 µM; in experiment [6], 0.2 µM; in experiment [11], 32 µM. The response in [12] was half-maximal at 23 µM (EC50).
On to `C[C@H]1[C@H](C(=O)O)[C@H]1[C@H](N)C(=O)O`, for which the EC50 in experiment [1] is over 100 µM; in experiment [2], 1.2 µM; in [3], over 100 µM; in [4], over 100 µM; in experiment [5] it was over 100 µM; in experiment [6], 0.038 µM. Moreover, the values for the EC50 in [7] and in experiment [8] were 0.008 µM and 1.32 µM, respectively.
On to `N[C@@H](CCP(=O)(O)O)C(=O)O`, for which the EC50 in [1] is 175 µM; in experiment [2], 0.055 µM; in experiment [3], over 100 µM; in [4], over 100 µM; in [5] it was 0.32 µM; in [6], over 100 µM. Moreover, the EC50 in experiment [7] turned out to be 448 µM; in experiment [8], 0.06 µM.
As to `N[C@H](C(=O)O)[C@H]1[C@@H](CC(=O)O)[C@@H]1C(=O)O`, the EC50 in experiment [3] was over 100 µM; in experiment [4], over 100 µM; in experiment [7] it was 0.1 µM.
In experiment [7], `N[C@H](C(=O)O)[C@@H]1[C@@H](C(=O)O)C1(F)F` came in with a half-maximal effective concentration (EC50) of 0.09 µM.
Regarding `NC(C(=O)O)c1ccc(P(=O)(O)O)cc1` (racemic), the EC50 is 185 µM in experiment [1]; 4.7 µM in experiment [2]; over 500 µM in experiment [3]; over 500 µM in experiment [4]; 5.2 µM in experiment [5]; over 200 µM in experiment [6]. Also, the EC50 was over 300 µM in [7] and 0.21 µM in experiment [8].
